In series [1] the target is c20S (constitutive 20S proteasome) (Homo sapiens, UniProt P20618+P28074). Description: 20S proteasome assay, chymotrypsin-like activity (LLVY), c20S. The conditions noted are these: LLVY c20S Hu 1 h CONT: IC50 (nM), succinyl-Leu-Leu-Val-Tyr-AMC. It counts as biochemical. From the text: (§1) Assay buffer consisted of TE buffer [20 mmol/L Tris (pH 8.0), 0.5 mmol/L EDTA] with (20S) or without (cell lysate) 0.03% SDS. Reactions were initiated by enzyme or lysate addition and monitored for AMC product formation at 27jC with a plate-based spectofluorometer (Tecan).

A short description of series [2]: Solubility pH 7. The conditions noted are these: pH 7, aqueous buffer. It counts as physicochemical.
Series [3] concerns the target i20S (20S immunoproteasome) (Homo sapiens, UniProt P20618+P28062). Briefly: 20S proteasome assay, chymotrypsin-like activity (LLVY), i20S. In kind it is biochemical. The conditions noted are these: LLVY i20S Hu 1 h CONT: IC50 (nM), succinyl-Leu-Leu-Val-Tyr-AMC.
Description: as §1

In series [4] the target is T1, β5 (Homo sapiens, UniProt P20618+P28074).
T1 construct: endogenous in cells; host or cells: MOLT-4
Briefly: ProCISE proteasome subunit assay, β5. In kind it is biochemical. On the procedure: (§2) This assay was used to assess the inhibitory activity against each of LMP2, LMP7, MECL1, β1, β2, and β5. Briefly, test compounds were serially diluted in DMSO at 100× concentration, then diluted to 10× in aqueous hypotonic lysis buffer. Lysate from the human acute lymphoblastic leukemia cell line, MOLT-4, was treated for 1 hour at 25° C. with compound at a final 1× concentration. […] Following this, lysate was denatured in guanidine hydrochloride, and subunits bound to probe were isolated with streptavidin-conjugated sepharose beads. Individual subunits were probed with subunit-specific primary antibodies, followed by HRP-conjugated secondary antibodies. A chemiluminescent substrate was used to generate signal associated with HRP binding, which was detected on a plate reader. Luminescent signal was normalized to protein content, then, percent activity calculated relative to DMSO-treated controls to generate IC50 curves.

Series [5] has as its target T2, LMP7 (Homo sapiens, UniProt P20618+P28062).
T2 construct: endogenous in cells; host or cells: MOLT-4
Description: ProCISE proteasome subunit assay, LMP7. In kind it is biochemical. On the procedure:
as §2

The term IC50 denotes the concentration needed to halve the response being measured. A lower IC50 goes with inhibition by little substance. As usually defined, the solubility is the dissolved amount per volume that the medium holds. Lower therefore signals little dissolved substance.

In brackets after ≈: the same amount, converted by molar mass. Several values for one entry are separate records, joined by “and”; a condition that tells them apart may be missing. Equal values may be shown once.

Turning to `COc1ccc(C[C@H](NC(=O)[C@H](C)NC(=O)CO)C(=O)N[C@@H](Cc2ccccc2)C(=O)[C@@]2(C)CO2)cc1` [Compound C-2008], the values for the IC50 in series [1] and in series [3] were 1590 nM and 558 nM, respectively. Further, in series [2], the concentration in solution (solubility) was 2330 µg/mL (≈ 4560 µM).

Consider `COc1ccc(C[C@H](NC(=O)CNC(=O)C2=C(C)c3ccccc3C2)C(=O)N[C@@H](CC2CCCC2)C(=O)[C@@]2(C)CO2)cc1` [Compound C-2039, N-(2-(((S)-1-(((S)-3-cyclopentyl-1-((R)-2-methyloxiran-2-yl)-1-oxopropan-2-yl)amino)-3-(4-methoxyphenyl)-1-oxopropan-2-yl)amino)-2-oxoethyl)-3-methyl-1H-indene-2-carboxamide], for which the IC50 in series [1] turned out to be 3950 nM; in series [3], 2520 nM. Also, the solubility in series [2] stood at 1.7 µg/mL (≈ 2.89 µM).

Regarding `COc1ccc(C[C@H](NC(=O)[C@H](CN2CCOCC2)NC(=O)c2cc(C)no2)C(=O)N[C@@H](CC2CCCC2)C(=O)[C@@]2(C)CO2)cc1` [Compound C-2044, N—((S)-1-(((S)-1-(((S)-3-cyclopentyl-1-((R)-2-methyloxiran-2-yl)-1-oxopropan-2-yl)amino)-3-(4-methoxyphenyl)-1-oxopropan-2-yl)amino)-3-morpholino-1-oxopropan-2-yl)-3-methylisoxazole-5-carboxamide], the IC50 worked out at 286 nM in series [1] and 1600 nM in series [3]. In series [2], this molecule came in with a solubility of 130 µg/mL (≈ 204 µM).

Consider `CCOCC(=O)N[C@@H](C)C(=O)N[C@@H](Cc1ccc(OC)cc1)C(=O)N[C@@H](CC1CCCC1)C(=O)[C@@]1(C)CO1` [Compound C-2020, (S)—N—((S)-3-cyclopentyl-1-((R)-2-methyloxiran-2-yl)-1-oxopropan-2-yl)-2-((S)-2-(2-ethoxyacetamido)propanamido)-3-(4-methoxyphenyl)propanamide], for which the IC50 in series [1] is 797 nM; in series [3], 560 nM. This molecule displayed a solubility in series [2] of 59.1 µg/mL (≈ 111 µM).

Consider `COC(=O)N[C@H](C)C(=O)N[C@@H](Cc1ccc(OC)cc1)C(=O)N[C@@H](Cc1ccccc1)C(=O)[C@@]1(C)CO1` [Compound C-2010, Methyl ((R)-1-(((S)-3-(4-methoxyphenyl)-1-(((S)-1-((R)-2-methyloxiran-2-yl)-1-oxo-3-phenylpropan-2-yl)amino)-1-oxopropan-2-yl)amino)-1-oxopropan-2-yl)carbamate], for which the IC50 worked out at 1050 nM in series [1] and 414 nM in series [3]. In series [2], this molecule showed a solubility of 300 µg/mL (≈ 587 µM).

For `COc1ccc(C[C@H](NC(=O)[C@@H](C)NC(=O)C2=Cc3ccccc3C2)C(=O)N[C@@H](CC2CCCC2)C(=O)[C@@]2(C)CO2)cc1` [Compound C-2036, N—((R)-1-(((S)-1-(((S)-3-cyclopentyl-1-((R)-2-methyloxiran-2-yl)-1-oxopropan-2-yl)amino)-3-(4-methoxyphenyl)-1-oxopropan-2-yl)amino)-1-oxopropan-2-yl)-1H-indene-2-carboxamide], the IC50 in series [1] is 5140 nM and 2710 nM; in series [4] (MOLT4 lysate Hu 1 h) it was 4860 nM; in series [5] (MOLT4 lysate Hu 1 h) it was 130 nM. In series [2], this molecule had a solubility of 2.1 µg/mL (≈ 3.57 µM).

Turning to `COc1ccc(C[C@H](NC(=O)[C@@H](NC(=O)OCc2ccccc2)C2(O)CC2)C(=O)N[C@@H](Cc2ccccc2)C(=O)[C@@]2(C)CO2)cc1` [Compound C-2046, Benzyl ((S)-1-(1-hydroxycyclopropyl)-2-(((S)-3-(4-methoxyphenyl)-1-(((S)-1-((R)-2-methyloxiran-2-yl)-1-oxo-3-phenylpropan-2-yl)amino)-1-oxopropan-2-yl)amino)-2-oxoethyl)carbamate], the figures for the IC50 in series [1] and in series [3] were 7.9 nM and 5.2 nM, respectively. The same molecule returned a solubility in series [2] of 10.7 µg/mL (≈ 17 µM).

Regarding `COc1ccc(C[C@H](NC(=O)[C@H](C)NC(=O)c2cnc(C)s2)C(=O)N[C@@H](CC2CCCC2)C(=O)[C@@]2(C)CO2)cc1` [Compound C-2025, N—((S)-1-(((S)-1-(((S)-3-cyclopentyl-1-((R)-2-methyloxiran-2-yl)-1-oxopropan-2-yl)amino)-3-(4-methoxyphenyl)-1-oxopropan-2-yl)amino)-1-oxopropan-2-yl)-2-methylthiazole-5-carboxamide], the IC50 in series [1] was determined as 289 nM; in series [3], 569 nM. Moreover, the solubility in series [2] amounted to 144 µg/mL (≈ 253 µM).

`COc1ccc(C[C@H](NC(=O)[C@H](C)NC(=O)CCO)C(=O)N[C@@H](Cc2ccccc2)C(=O)[C@@]2(C)CO2)cc1` [Compound C-2012, (S)-2-((S)-2-(3-hydroxypropanamido)propanamido)-3-(4-methoxyphenyl)-N—((S)-1-((R)-2-methyloxiran-2-yl)-1-oxo-3-phenylpropan-2-yl)propanamide]: the IC50 in series [1] came to 262 nM; in series [3], 86.9 nM. The solubility in series [2] amounted to 3830 µg/mL (≈ 7280 µM).

Regarding `C[C@@H](NC(=O)CC(C)(C)O)C(=O)N[C@@H](Cc1ccc(S(C)(=O)=O)cc1)C(=O)N[C@@H](CC1CCCC1)C(=O)[C@H]1CO1` [Compound C-2055, N—((R)-1-(((S)-1-(((S)-3-cyclopentyl-1-((R)-oxiran-2-yl)-1-oxopropan-2-yl)amino)-3-(4-(methylsulfonyl)phenyl)-1-oxopropan-2-yl)amino)-1-oxopropan-2-yl)-3-hydroxy-3-methylbutanamide], the figures for the IC50 in series [4] (MOLT4 lysate Hu 1 h) and in series [5] (MOLT4 lysate Hu 1 h) were 354 nM and 17.6 nM, respectively. For the same molecule, the concentration in solution in series [2] (solubility) was 1970 µg/mL (≈ 3400 µM).

With `COc1ccc(C[C@H](NC(=O)[C@]2(C)CCC(=O)N2)C(=O)N[C@@H](Cc2ccccc2)C(=O)[C@@]2(C)CO2)cc1` [Compound C-3011, (S)—N—((S)-3-(4-methoxyphenyl)-1-(((S)-1-((R)-2-methyloxiran-2-yl)-1-oxo-3-phenylpropan-2-yl)amino)-1-oxopropan-2-yl)-2-methyl-5-oxopyrrolidine-2-carboxamide], the IC50 in series [1] stood at 3320 nM; in series [3] it was 4550 nM. The amount in solution in series [2] (solubility) came to 1230 µg/mL (≈ 2420 µM).

As for `CC1=C(C(=O)N[C@H](C)C(=O)N[C@@H](Cc2c[nH]c3ccccc23)C(=O)N[C@@H](CC2CCCC2)C(=O)[C@@]2(C)CO2)Cc2ccccc21` [Compound C-2047, N—((R)-1-(((S)-1-(((S)-3-cyclopentyl-1-((R)-2-methyloxiran-2-yl)-1-oxopropan-2-yl)amino)-3-(1H-indol-3-yl)-1-oxopropan-2-yl)amino)-1-oxopropan-2-yl)-3-methyl-1H-indene-2-carboxamide], the figures for the IC50 in series [4] (MOLT4 lysate Hu 1 h) and in series [5] (MOLT4 lysate Hu 1 h) were 1100 nM and 68.7 nM, respectively. Further, the solubility in series [2] came out at 0.3 µg/mL (≈ 0.491 µM).

In the case of `COc1ccc(C[C@H](NC(=O)[C@@H](C)NC(=O)C2=CCCC2)C(=O)N[C@@H](Cc2ccccc2)C(=O)[C@@]2(C)CO2)cc1` [Compound C-2058, N—((R)-1-(((S)-3-(4-methoxyphenyl)-1-(((S)-1-((R)-2-methyloxiran-2-yl)-1-oxo-3-phenylpropan-2-yl)amino)-1-oxopropan-2-yl)amino)-1-oxopropan-2-yl)cyclopent-1-enecarboxamide], the IC50 in series [4] (MOLT4 lysate Hu 1 h) was 4290 nM; in series [5] (MOLT4 lysate Hu 1 h), 539 nM. The amount in solution in series [2] (solubility) came to 45.4 µg/mL (≈ 82.9 µM).

With `COc1ccc(C[C@H](NC(=O)[C@@H](C)NC(=O)c2nc3ccccc3[nH]2)C(=O)N[C@@H](CC2CCCC2)C(=O)[C@@]2(C)CO2)cc1` [Compound C-2029, N—((R)-1-(((S)-1-(((S)-3-cyclopentyl-1-((R)-2-methyloxiran-2-yl)-1-oxopropan-2-yl)amino)-3-(4-methoxyphenyl)-1-oxopropan-2-yl)amino)-1-oxopropan-2-yl)-1H-benzo[d]imidazole-2-carboxamide], the IC50 in series [1] turned out to be 3400 nM; in series [3] it was 2580 nM. Moreover, the solubility in series [2] is 1.7 µg/mL (≈ 2.88 µM).

For the molecule `COc1ccc(C[C@H](NC(=O)[C@@H](C)NC(=O)c2oncc2C)C(=O)N[C@@H](CC2CCCC2)C(=O)[C@@]2(C)CO2)cc1` [Compound C-2024, N—((R)-1-(((S)-1-(((S)-3-cyclopentyl-1-((R)-2-methyloxiran-2-yl)-1-oxopropan-2-yl)amino)-3-(4-methoxyphenyl)-1-oxopropan-2-yl)amino)-1-oxopropan-2-yl)-4-methylisoxazole-5-carboxamide], the IC50 is 6030 nM in series [1] and 2270 nM in series [3]. The solubility in series [2] was found to be 44.1 µg/mL (≈ 79.5 µM).

Regarding `COc1ccc(C[C@H](NC(=O)[C@H](C)NC(=O)C2=C(C)c3ccccc3C2)C(=O)N[C@@H](Cc2ccccc2)C(=O)[C@@]2(C)CO2)cc1` [Compound C-2049, N—((S)-1-(((S)-3-(4-methoxyphenyl)-1-(((S)-1-((R)-2-methyloxiran-2-yl)-1-oxo-3-phenylpropan-2-yl)amino)-1-oxopropan-2-yl)amino)-1-oxopropan-2-yl)-3-methyl-1H-indene-2-carboxamide], the IC50 in series [4] (ProCISE beta5 MOLT4 lysate Hu 1 h CONT: IC50 (nM)) worked out at 57.6 nM; in series [5] (ProCISE LMP7 MOLT4 lysate Hu 1 h CONT: IC50 (nM)), 45.8 nM. Also, in series [2], the concentration in solution (solubility) came to 0.8 µg/mL (≈ 1.31 µM).
